According to patent US8771665B2 (Cocrystal Discovery, Inc., priority 2010, dated 2014):

Each compound was assayed against T1, HCV1b NS5B polymerase delta 21 (Hepatitis C virus genotype 1b, UniProt P26663) (assay: RNA-Dependent RNA HCV NS5B (Polymerase) Assay and IC50 Determination).
T1 construct: purified HCV1b NS5B polymerase delta 21
T1 sequence (P26663 2420-2989): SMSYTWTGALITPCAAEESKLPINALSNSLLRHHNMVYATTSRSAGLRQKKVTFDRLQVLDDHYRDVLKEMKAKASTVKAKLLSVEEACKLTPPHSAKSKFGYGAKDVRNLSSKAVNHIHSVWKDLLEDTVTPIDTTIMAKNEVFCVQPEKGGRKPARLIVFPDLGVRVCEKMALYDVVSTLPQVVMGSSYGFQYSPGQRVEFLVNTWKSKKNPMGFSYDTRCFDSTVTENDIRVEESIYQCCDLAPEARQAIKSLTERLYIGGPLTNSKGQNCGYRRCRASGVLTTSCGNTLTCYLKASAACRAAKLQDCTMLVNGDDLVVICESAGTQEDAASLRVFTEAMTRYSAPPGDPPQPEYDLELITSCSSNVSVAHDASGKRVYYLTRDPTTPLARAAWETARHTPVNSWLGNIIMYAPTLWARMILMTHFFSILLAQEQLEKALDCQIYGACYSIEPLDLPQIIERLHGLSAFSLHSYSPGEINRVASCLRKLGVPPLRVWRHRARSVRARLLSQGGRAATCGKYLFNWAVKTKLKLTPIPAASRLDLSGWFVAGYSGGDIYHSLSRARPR
Format: biochemical
Procedure, shortened: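 Purified NS5B Δ21 (0.6 μg) with polyA:U16 template, 10 μM UTP plus α-32P UTP in Tris-HCl pH 7.5, 5 mM MgCl2, 0.5% Triton X-100, 60 min at 23°C with varied compound concentrations. Radiolabelled RNA captured on filters, quantified by phosphorimaging; IC50 from triplicate assays.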
In the case of `CC1CCC(C2=C(c3cc(-c4ccccc4)sc3C(=O)O)CCN(C(=O)Cc3cccc4ccccc34)C2)CC1` (stereo not drawn) [Example 097, 3-[5-(4-Methyl-cyclohexyl)-1-(2-naphthalen-1-yl-acetyl)-1,2,3,6-tetrahydro-pyridin-4-yl]-5-phenyl-thiophene-2-carboxylic acid], the IC50 is reported as > 10 µM. With `CC1CCC(C2=C(c3cc(-c4ccccc4)sc3C(=O)O)CCN(C(=O)Cc3ccc4ccccc4c3)C2)CC1` (stereo not drawn) [Example 096, 3-[5-(4-Methyl-cyclohexyl)-1-(2-naphthalen-2-yl-acetyl)-1,2,3,6-tetrahydro-pyridin-4-yl]-5-phenyl-thiophene-2-carboxylic acid] the IC50 was > 10 µM. `CCN1CCC(c2cc(C#CCOC)sc2C(=O)O)=C(C2CCC(C)CC2)C1` (stereo not drawn) [Example 034, 3-[1-Ethyl-5-(4-methyl-cyclohexyl)-1,2,3,6-tetrahydro-pyridin-4-yl]-5-(3-methoxy-prop-1-ynyl)-thiophene-2-carboxylic acid] was tested, and the IC50 was < 3 µM. `Cc1ccc(S(=O)(=O)N2CCC(c3cc(-c4ccccc4)sc3C(=O)O)=C(C3CCC(C)CC3)C2)cc1` (stereo not drawn) [Example 036, 3-[5-(4-Methyl-cyclohexyl)-1-(toluene-4-sulfonyl)-1,2,3,6-tetrahydro-pyridin-4-yl]-5-phenyl-thiophene-2-carboxylic acid] was tested, and the IC50 was > 10 µM. `CC1CCC(C2=C(c3cc(-c4ccccc4)sc3C(=O)O)CCN(CCCCc3ccccc3)C2)CC1` (stereo not drawn) [Example 080, 3-[5-(4-Methyl-cyclohexyl)-1-(4-phenyl-butyl)-1,2,3,6-tetrahydro-pyridin-4-yl]-5-phenyl-thiophene-2-carboxylic acid] was tested, and the IC50 was > 10 µM. For `CN1CCC(c2cc(-c3ccccc3)sc2C(=O)O)=C(C2CCC(C(F)(F)F)CC2)C1` (stereo not drawn) [Example 064, 3-[1-Methyl-5-(4-trifluoromethyl-cyclohexyl)-1,2,3,6-tetrahydro-pyridin-4-yl]-5-phenyl-thiophene-2-carboxylic acid], the IC50 was > 10 µM. Work on `CC1CCC(C2=C(c3cc(C#CC(C)(C)C)sc3C(=O)O)CCN(Cc3ccncc3)C2)CC1` (stereo not drawn) [Example 133, 5-(3,3-Dimethyl-but-1-ynyl)-3-[5-(4-methyl-cyclohexyl)-1-pyridin-4-ylmethyl-1,2,3,6-tetrahydro-pyridin-4-yl]-thiophene-2-carboxylic acid] yielded an IC50 of 3 to 10 µM. Compound `Cc1cnc2cc(-c3ccc(-c4cc(C5=C(C6CCC(C)CC6)CN(C)CC5)c(C(=O)O)s4)cc3)nn2c1` (stereo not drawn) [Example 163, 3-[1-Methyl-5-(4-methyl-cyclohexyl)-1,2,3,6-tetrahydro-pyridin-4-yl]-5-[4-(6-methyl-pyrazolo[1,5-a]pyrimidin-2-yl)-phenyl]-thiophene-2-carboxylic acid] has an IC50 of 3 to 10 µM. `CC1CC=C(C2=C(c3cc(C#CC(C)(C)C)sc3C(=O)O)CCN(C)C2)CC1` (stereo not drawn) [Example 068, 5-(3,3-Dimethyl-but-1-ynyl)-3-[1-methyl-5-(4-methyl-cyclohex-1-enyl)-1,2,3,6-tetrahydro-pyridin-4-yl]-thiophene-2-carboxylic acid] was tested, and the IC50 was < 3 µM. `CN1CCC(c2cc(-c3ccccc3)sc2C(=O)O)=C(CCC2CCCC2)C1` [Example 063, 3-[5-(2-Cyclopentyl-ethyl)-1-methyl-1,2,3,6-tetrahydro-pyridin-4-yl]-5-phenyl-thiophene-2-carboxylic acid] was tested, and the IC50 was > 10 µM. `CC1CCC(C2=C(c3cc(-c4ccccc4)sc3C(=O)O)CN(C)CC2)CC1` (stereo not drawn) [Example 041, 3-[1-Methyl-4-(4-methyl-cyclohexyl)-1,2,5,6-tetrahydro-pyridin-3-yl]-5-phenyl-thiophene-2-carboxylic acid] was tested, and the IC50 was < 3 µM. `CCN1CCC(c2cc(C#CC(C)(C)C)sc2C(=O)O)=C(C2CCC(C)CC2)C1` (stereo not drawn) [Example 014, 5-(3,3-Dimethyl-but-1-ynyl)-3-[1-ethyl-5-(4-methyl-cyclohexyl)-1,2,3,6-tetrahydro-pyridin-4-yl]-thiophene-2-carboxylic acid] was tested, and the IC50 was < 3 µM.
